Source: patent US9840500B2, “Compounds as dual inhibitors of histone methyltransferases and DNA methyltransferases” (FUNDACIÓN PARA LA INVESTIGACIÓN MÉDICA APLICADA, priority 2014, dated 2017)

Tests used:
HCC95 = assay: Cell proliferation assay, HCC95 (small-cell lung cancer); assay type: cell-based; details: Homo sapiens, non-small-cell lung cancer, 48 hours
Experimental: (§1) Cell proliferation was analyzed after 48 hours of in vitro treatment using the CellTiter 96 Aqueous One Solution Cell Proliferation Assay (Promega, Madison, Wis.). This is a colorimetric method for determining the number of viable cells in proliferation.
(§2) For the assay, suspension cells were cultured by triplicate at a density of 1×10^6 cells/ml in 96-well plates (100.000 cells/well, 100 μl/well), except for OCILY-3 and OCILY-10 cell lines which were cultured at a density of 0.5×10^6 cells/ml (50.000 cells/well, 100 μl/well) and for HepG2, Hep3B and PLC/PRF/5 cell ines which were cultured at a density of 3000 cells/well, 100 μl/well). Adherent cells were obtained from 80-90% confluent flasks and 100 μl of cells were seeded at a density of 5000 cells/well in 96-well plates by triplicate. Before addition of the compounds, adherent cells were allowed to attach to the bottom of the wells for 12 hours. […]
(§3) After 48 hours of treatment, plates with suspension cells were centrifuged at 800 g for 10 minutes and medium was removed. […] After 1-3 hours of incubation at 37° C., absorbance was measured at 490 nm in a 96-well plate reader. The background absorbance was measured in wells with only cell line medium and solution reagent. Data was calculated as a percentage of total absorbance of treated cell/absorbance of non treated cells. […]

CAKI-2 = assay: Cell proliferation assay, CAKI-2 (Renal); assay type: cell-based; details: Homo sapiens, 48 hours
Experimental: as §1, §2, §3

U87-MG = assay: Cell proliferation assay, U87-MG (Glioblastoma); assay type: cell-based; details: Homo sapiens, U-87 MG, 48 hours
Experimental: as §1, §2, §3

UM-UC-7 = assay: Cell proliferation assay, UM-UC-7 (Bladder); assay type: cell-based; details: 48 hours
Experimental: as §1, §2, §3

MCF-7 = assay: Cell proliferation assay, MCF-7 (Breast); assay type: cell-based; details: Homo sapiens, MCF7, 48 hours
Experimental: as §1, §2, §3

Hep3B = assay: Cell proliferation assay, Hep3B (HCC); assay type: cell-based; details: Homo sapiens, 48 hours of treatment, Table 3
PC3 = assay: Cell proliferation assay, PC3 (Prostate); assay type: cell-based; details: Homo sapiens, PC-3, 48 hours
Experimental: as §1, §2, §3

SK-MEL-103 = assay: Cell proliferation assay, SK-MEL-103 (Melanoma); assay type: cell-based; details: Homo sapiens, 48 hours
Experimental: as §1, §2, §3

RT112 = assay: Cell proliferation assay, RT112 (Bladder); assay type: cell-based; details: Homo sapiens, RT-112, 48 hours
Experimental: as §1, §2, §3

HUH7 = assay: Cell proliferation assay, HUH7 (Hepatocarcinoma); assay type: cell-based; details: Homo sapiens, Huh-7, 48 hours
Experimental: as §1, §2, §3

A498 = assay: Cell proliferation assay, A498 (Renal); assay type: cell-based; details: Homo sapiens, 48 hours
Experimental: as §1, §2, §3

451-LU = assay: Cell proliferation assay, 451-LU (Melanoma); assay type: cell-based; details: 48 hours
Experimental: as §1, §2, §3

MOLM-13 = assay: Cell proliferation assay, MOLM-13 (AML); assay type: cell-based; details: Homo sapiens, 48 hours
Experimental: as §1, §2, §3

JJN3 = assay: Cell proliferation assay, JJN3 (MM); assay type: cell-based; details: Homo sapiens, JJN-3, Table 5 comparison
Experimental: as §1
(§4) For the assay, suspension cells were cultured by triplicate at a density of 1×10^6 cells/ml in 96-well plates (100.000 cells/well, 100 μl/well), except for OCILY-3 and OCILY-10 cell lines which were cultured at a density of 0.5×10^6 cells/ml (50.000 cells/well, 100 μl/well) and for HepG2, Hep3B and PLC/PRF/5 cell ines which were cultured at a density of 3000 cells/well, 100 μl/well). Adherent cells were obtained from 80-90% confluent flasks and 100 μl of cells were seeded at a density of 5000 cells/well in 96-well plates by triplicate. Before addition of the compounds, adherent cells were allowed to attach to the bottom of the wells for 12 hours. In all cases, only the 60 inner wells were used to avoid any border effects.
(§5) After 48 hours of treatment, plates with suspension cells were centrifuged at 800 g for 10 minutes and medium was removed. The plates with adherent cells were flicked to remove medium. Then, cells were incubated with 100 ul/well of medium and 20 ul/well of CellTiter 96 Aqueous One Solution reagent. After 1-3 hours of incubation at 37° C., absorbance was measured at 490 nm in a 96-well plate reader. The background absorbance was measured in wells with only cell line medium and solution reagent. Data was calculated as a percentage of total absorbance of treated cell/absorbance of non treated cells.

A375 = assay: Cell proliferation assay, A375 (Melanoma); assay type: cell-based; details: Homo sapiens, A-375, 48 hours
Experimental: as §1, §2, §3

HepG2 = assay: Cell proliferation assay, HepG2 (HCC); assay type: cell-based; details: Homo sapiens, 48 hours of treatment, Table 3
DNMT3A/3L = DNMT3A/3L (Homo sapiens, UniProt Q9Y6K1); assay: DNMT3A enzyme activity assay (chemiluminescence BPS DNMT Universal Assay Kit); assay type: biochemical
Experimental: DNMT3A and DNMT3B activity assays were carried out with the chemiluminiscence BPS DNMT Universal Assay Kit (BPS#52035) using a strip 96-well plate pre-coated with DNMT substrate.
The enzyme activity assay protocol is as follows: • Rehydrate the microwells by adding 150 μL of TBST buffer (1× Tris-buffered saline (TBS), pH 8.0, containing 0.05% Tween-20) to every well. Incubate 15 minutes at room temperature. • Dilute each purified DNMT [DNMT3A/3L (BPS#51106) or DNMT3B/3L (BPS#51109)] in 1×DNMT assay buffer 2 (BPS#52201) at 5-10 ng/μL. Keep diluted enzyme on ice until use. • Prepare 50 μL of reaction mixture consisting of 20 μL of DNMT (5-10 ng/μL), 12.5 μL of 4×DNMT assay buffer 2 (BPS#52201), 2.5 μL of S-adenosylmethionine 400 μM, test compound at concentrations ranging from 3 nM to 10 μM and H2O up to 50 μL. • Add the entire reaction mixture to the substrate coated wells. […]
Incubate for 30 min at room temperature with slow shaking. • Wash plate three times with TBST buffer and incubate in Blocking buffer shaking on a rotating platform for 10 min. […] Immediately read luminescence using a BioTek Synergy™2 microplate reader.
The chemiluminescence intensity data were analyzed and compared. […] Calculated IC50 values were determined using non-linear regression analysis of Sigmoidal dose-response curve generated with a four-parameters inhibition curve.

SK-MEL-147 = assay: Cell proliferation assay, SK-MEL-147 (Melanoma); assay type: cell-based; details: Homo sapiens, 48 hours
Experimental: as §1, §2, §3

MGH-U4 = assay: Cell proliferation assay, MGH-U4 (Bladder); assay type: cell-based; details: 48 hours
Experimental: as §1, §2, §3

Sk-Hep1 = assay: Cell proliferation assay, Sk-Hep1 (Hepatocarcinoma); assay type: cell-based; details: Homo sapiens, 48 hours
Experimental: as §1, §2, §3

SU8686 = assay: Cell proliferation assay, SU8686 (Pancreas); assay type: cell-based; details: Homo sapiens, SU.86.86, 48 hours
Experimental: as §1, §2, §3

U266 = assay: Cell proliferation assay, U266 (MM); assay type: cell-based; details: Homo sapiens, U-266, Table 5 comparison
Experimental: as §1, §4, §5

Chain of DNMT3A/3L (Q9Y6K1 whole entry, looked up): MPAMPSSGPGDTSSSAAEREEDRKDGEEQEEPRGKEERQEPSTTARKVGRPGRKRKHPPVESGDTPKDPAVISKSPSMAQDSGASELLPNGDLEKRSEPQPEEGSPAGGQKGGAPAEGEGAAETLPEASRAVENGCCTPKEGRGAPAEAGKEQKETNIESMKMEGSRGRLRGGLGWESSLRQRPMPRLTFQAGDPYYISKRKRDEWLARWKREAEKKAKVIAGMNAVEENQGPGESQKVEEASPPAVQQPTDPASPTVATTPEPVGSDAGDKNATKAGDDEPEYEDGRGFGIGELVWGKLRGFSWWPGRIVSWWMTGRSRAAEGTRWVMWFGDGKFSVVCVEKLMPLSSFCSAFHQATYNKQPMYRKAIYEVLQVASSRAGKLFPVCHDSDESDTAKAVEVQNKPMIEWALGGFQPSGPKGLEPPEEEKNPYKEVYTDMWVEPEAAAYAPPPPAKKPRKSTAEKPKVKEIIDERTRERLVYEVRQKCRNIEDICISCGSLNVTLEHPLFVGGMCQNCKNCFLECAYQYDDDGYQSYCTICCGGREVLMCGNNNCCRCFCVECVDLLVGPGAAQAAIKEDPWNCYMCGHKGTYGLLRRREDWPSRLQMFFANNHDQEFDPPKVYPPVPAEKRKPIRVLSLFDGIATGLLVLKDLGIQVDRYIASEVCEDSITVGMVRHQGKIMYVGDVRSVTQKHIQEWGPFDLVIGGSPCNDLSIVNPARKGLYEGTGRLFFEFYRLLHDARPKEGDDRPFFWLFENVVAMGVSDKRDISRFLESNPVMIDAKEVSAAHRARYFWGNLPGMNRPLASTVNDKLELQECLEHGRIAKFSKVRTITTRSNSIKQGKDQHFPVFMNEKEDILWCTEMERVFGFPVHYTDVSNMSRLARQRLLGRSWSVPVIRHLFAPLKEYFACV
Chain of DNMT3A/3L (Q9UJW3 whole entry partner): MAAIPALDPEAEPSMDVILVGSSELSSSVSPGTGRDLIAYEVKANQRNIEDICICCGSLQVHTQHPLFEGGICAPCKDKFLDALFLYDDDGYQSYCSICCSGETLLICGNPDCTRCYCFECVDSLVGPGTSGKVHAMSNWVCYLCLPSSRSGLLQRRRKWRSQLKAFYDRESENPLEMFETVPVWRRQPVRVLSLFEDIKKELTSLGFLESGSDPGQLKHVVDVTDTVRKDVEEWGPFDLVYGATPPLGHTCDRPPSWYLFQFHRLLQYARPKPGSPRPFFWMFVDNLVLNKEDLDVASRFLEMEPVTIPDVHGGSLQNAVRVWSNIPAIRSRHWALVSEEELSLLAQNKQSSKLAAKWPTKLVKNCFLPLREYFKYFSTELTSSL

SMILES | GI50 (HCC95) [nM] | GI50 (CAKI-2) [nM] | GI50 (U87-MG) [nM] | GI50 (UM-UC-7) [nM] | GI50 (MCF-7) [nM] | GI50 (Hep3B) [nM] | GI50 (PC3) [nM] | GI50 (SK-MEL-103) [nM] | GI50 (RT112) [nM] | GI50 (HUH7) [nM] | GI50 (A498) [nM] | GI50 (451-LU) [nM] | GI50 (MOLM-13) [nM] | GI50 (JJN3) [nM] | GI50 (A375) [nM] | GI50 (HepG2) [nM] | IC50 (DNMT3A/3L) [nM] | GI50 (SK-MEL-147) [nM] | GI50 (MGH-U4) [nM] | GI50 (Sk-Hep1) [nM] | also measured
COc1cc2c(NC3CCN(C)CC3)cc(-c3ccc(C)o3)nc2cc1OCCCN1CCCC1.O=C(O)C(F)(F)F [Compound 3-04, 6-methoxy-2-(5-methyl-2-furyl)-N-(1-methyl-4-piperidyl)-7-(3-pyrrolidin-1-ylpropoxy)quinolin-4-amine; 2,2,2-trifluoroacetic acid] | 100 to 1000 | 1000 to 10000 | 100 to 1000 | 100 to 1000 | 100 to 1000 | 100 to 1000 | 100 to 1000 | 100 to 1000 | 100 to 1000 | ≤ 100 | > 10000 | 100 to 1000 | 100 to 1000 | 1000 to 10000 | 100 to 1000 | 100 to 1000 | < 100 | 100 to 1000 | 100 to 1000 | 100 to 1000 | GI50 (SU8686): 1000 to 10000 nM; GI50 (U266): 1000 to 10000 nM
COc1cc2c(NCC3CCN(C)CC3)cc(-c3ccc(C)o3)nc2cc1OCCCN1CCCC1 [Compound 3-07] | 100 to 1000 | 100 to 1000 | 100 to 1000 | 100 to 1000 | 1000 to 10000 | 100 to 1000 | 100 to 1000 | ≤ 100 | 100 to 1000 | 100 to 1000 | 100 to 1000 | ≤ 100 | 1000 to 10000 | 1000 to 10000 | ≤ 100 | 100 to 1000 | < 100 | ≤ 100 | 100 to 1000 | 100 to 1000 | GI50 (SU8686): 100 to 1000 nM; GI50 (U266): 1000 to 10000 nM
